Laboratory results as given in patent US4267112A, “Antibiotic U-58,431” (The Upjohn Company, priority 1979, dated 1981).

What was measured:
[1] = test system: Diplococcus pneumoniae UC 41; test: antibacterial broth MIC assay; format: cell-based; settings: Brain Heart Infusion Broth, 42 hours
Description: (§1) The antibacterial assay is a standard microbiological broth assay. The MIC is determined by standard methods using two-fold dilutions of the antibiotic in Brian Heart Infusion Broth (Difco Lab., Detroit, Michigan). The inocula are overnight cultures of the test organisms, diluted so that the final population contains approximately 10^5 cells/ml. The tubes are incubated at 28° to 37° C. for 42 hours. The lowest antibiotic concentration which allows no growth=MIC or minimum inhibitory concentration.

Escherichia coli UC 45 = test: antibacterial broth MIC assay; format: cell-based; settings: Brain Heart Infusion Broth, 42 hours
Description: as §1

[2] = test system: Klebsiella pneumoniae UC 58; test: antibacterial broth MIC assay; format: cell-based; settings: Brain Heart Infusion Broth, 42 hours
Description: as §1

Proteus vulgaris UC 93 = test: antibacterial broth MIC assay; format: cell-based; settings: Brain Heart Infusion Broth, 42 hours
Description: as §1

[3] = test system: Pseudomonas aeruginosa UC 95; test: antibacterial broth MIC assay; format: cell-based; settings: Brain Heart Infusion Broth, 42 hours
Description: as §1

[4] = test system: Salmonella schottmuelleri UC 126; test: antibacterial broth MIC assay; format: cell-based; settings: Brain Heart Infusion Broth, 42 hours
Description: as §1

[5] = test system: Staphylococcus aureus 284 UC 76; test: antibacterial broth MIC assay; format: cell-based; settings: Brain Heart Infusion Broth, 42 hours
Description: as §1

[6] = test system: Staphylococcus aureus UC 570; test: antibacterial broth MIC assay; format: cell-based; settings: Brain Heart Infusion Broth, 42 hours
Description: as §1

[7] = test system: Staphylococcus aureus UC 746; test: antibacterial broth MIC assay; format: cell-based; settings: Brain Heart Infusion Broth, 42 hours
Description: as §1

[8] = test system: Streptococcus faecalis UC 694; test: antibacterial broth MIC assay; format: cell-based; settings: Brain Heart Infusion Broth, 42 hours
Description: as §1

[9] = test system: Streptococcus hemolyticus UC 152; test: antibacterial broth MIC assay; format: cell-based; settings: Brain Heart Infusion Broth, 42 hours
Description: as §1

[10] = test system: Blastomyces dermatidis UC 1466; test: antifungal agar dilution test; format: cell-based; design: key: -: inhibition; +: no inhibition; settings: 28° C., 72 hours
Description: (§2) The antifungal spectrum for antibiotic U-58,431 was conducted on a standard agar […] assay. The results are as follows: An agar dilution method is used. 100 mg amounts of material is solubilized in 1 ml of dimethylformamide (DMF) and diluted to 10 ml with mycophil Broth (BBL labs.) unless completely soluble in water. The material to be tested is incorporated in melted (48° C.) mycophil Agar at concentrations of 1000, 100, 10 and 1 mcg/ml. Fifteen ml of agar is pipetted into a petri dish. After solidification, the surface is streaked with agar spore suspensions of human fungal pathogens. The suspensions are made by adding 10 ml sterile distilled water to agar […] of the test organisms. The slant surface is scraped with a sterile inoculating needle, and 0.5 ml of this suspension is added to 9.5 ml melted (48° C.) mycophil Agar in a stamp streak well. (Each stamp streak base has 6 wells.) The streaked plates are incubated at 28° C. for 72 hours at which time results are recorded. Readings are by visual observation.

Candida albicans UC 7163 = test: antifungal agar dilution test; format: cell-based; design: key: -: inhibition; +: no inhibition; settings: 28° C., 72 hours
Description: as §2

Candida albicans UC 7164 = test: antifungal agar dilution test; format: cell-based; design: key: -: inhibition; +: no inhibition; settings: 28° C., 72 hours
Description: as §2

[11] = test system: Cryptococcus neoformans UC 1139; test: antifungal agar dilution test; format: cell-based; design: key: -: inhibition; +: no inhibition; settings: 28° C., 72 hours
Description: as §2

[12] = test system: Cryptococcus neoformans UC 4869; test: antifungal agar dilution test; format: cell-based; design: key: -: inhibition; +: no inhibition; settings: 28° C., 72 hours
Description: as §2

Geotrichum sp. UC 1207 = test: antifungal agar dilution test; format: cell-based; design: key: -: inhibition; +: no inhibition; settings: 28° C., 72 hours
Description: as §2

[13] = test system: Hormodendrum compactum UC 1222; test: antifungal agar dilution test; format: cell-based; design: key: -: inhibition; +: no inhibition; settings: 28° C., 72 hours
Description: as §2

[14] = test system: Nocardia asteroides UC 2052; test: antifungal agar dilution test; format: cell-based; design: key: -: inhibition; +: no inhibition; settings: 28° C., 72 hours
Description: as §2

[15] = test system: Sporotrichum schenckii UC 1364; test: antifungal agar dilution test; format: cell-based; design: key: -: inhibition; +: no inhibition; settings: 28° C., 72 hours
Description: as §2

[16] = test system: Trichophyton asteroides UC 4775; test: antifungal agar dilution test; format: cell-based; design: key: -: inhibition; +: no inhibition; settings: 28° C., 72 hours
Description: as §2

[17] = test system: Trichophyton mentagrophytes UC 4797; test: antifungal agar dilution test; format: cell-based; design: key: -: inhibition; +: no inhibition; settings: 28° C., 72 hours
Description: as §2

[18] = test system: Trichophyton mentagrophytes UC 4860; test: antifungal agar dilution test; format: cell-based; design: key: -: inhibition; +: no inhibition; settings: 28° C., 72 hours
Description: as §2

[19] = test system: Trichophyton rubrum UC 1458; test: antifungal agar dilution test; format: cell-based; design: key: -: inhibition; +: no inhibition; settings: 28° C., 72 hours
Description: as §2

[20] = test system: Trichophyton violaceum UC 1459; test: antifungal agar dilution test; format: cell-based; design: key: -: inhibition; +: no inhibition; settings: 28° C., 72 hours
Description: as §2

solubilities = format: physicochemical
[21] = test system: various Gram-positive and Gram-negative bacteria; test: antibacterial activity (general statement); format: cell-based
Description: as §1

fungi = test: antifungal activity (general statement); format: cell-based
Description: An agar dilution method is used. 100 mg amounts of material is solubilized in 1 ml of dimethylformamide (DMF) and diluted to 10 ml with mycophil Broth (BBL labs.) unless completely soluble in water. The material to be tested is incorporated in melted (48° C.) mycophil Agar at concentrations of 1000, 100, 10 and 1 mcg/ml. Fifteen ml of agar is pipetted into a petri dish. After solidification, the surface is streaked with agar spore suspensions of human fungal pathogens. The suspensions are made by adding 10 ml sterile distilled water to agar slants of the test organisms. The slant surface is scraped with a sterile inoculating needle, and 0.5 ml of this suspension is added to 9.5 ml melted (48° C.) mycophil Agar in a stamp streak well. (Each stamp streak base has 6 wells.)
The streaked plates are incubated at 28° C. for 72 hours at which time results are recorded. Readings are by visual observation.

P. vulgaris = test: activity against P. vulgaris (general statement); format: cell-based
Description: as §1

## C[C@H]1O[C@@H]2C3=C(C(=O)C(=N)C(C(N)=O)=C3O)[C@@]1(O)C[C@H]2O [U-58,431]
[1]
  Minimum Inhibitory Concentration: 1.0 µg/mL
Escherichia coli UC 45
  Minimum Inhibitory Concentration: 250 µg/mL
[2]
  Minimum Inhibitory Concentration: 125 µg/mL
Proteus vulgaris UC 93
  Minimum Inhibitory Concentration: 250 µg/mL
[3]
  Minimum Inhibitory Concentration: 125 µg/mL
[4]
  Minimum Inhibitory Concentration: 62.5 µg/mL
[5]
  Minimum Inhibitory Concentration: 125 µg/mL
[6]
  Minimum Inhibitory Concentration: 125 µg/mL
[7]
  Minimum Inhibitory Concentration: 125 µg/mL
[8]
  Minimum Inhibitory Concentration: 250 µg/mL
[9]
  Minimum Inhibitory Concentration: 125 µg/mL
[10]; 1 mcg/ml
  inhibition at indicated concentration: +
[10]; 10 mcg/ml
  inhibition at indicated concentration: +
[10]; 100 mcg/ml
  inhibition at indicated concentration: +
[10]; 1000 mcg/ml
  inhibition at indicated concentration: +
Candida albicans UC 7163; 1 mcg/ml
  inhibition at indicated concentration: +
Candida albicans UC 7163; 10 mcg/ml
  inhibition at indicated concentration: +
Candida albicans UC 7163; 100 mcg/ml
  inhibition at indicated concentration: +
Candida albicans UC 7163; 1000 mcg/ml
  inhibition at indicated concentration: +
Candida albicans UC 7164; 1 mcg/ml
  inhibition at indicated concentration: +
Candida albicans UC 7164; 10 mcg/ml
  inhibition at indicated concentration: +
Candida albicans UC 7164; 100 mcg/ml
  inhibition at indicated concentration: +
Candida albicans UC 7164; 1000 mcg/ml
  inhibition at indicated concentration: +
[11]; 1 mcg/ml
  inhibition at indicated concentration: +
[11]; 10 mcg/ml
  inhibition at indicated concentration: +
[11]; 100 mcg/ml
  inhibition at indicated concentration: +
[11]; 1000 mcg/ml
  inhibition at indicated concentration: +
[12]; 1 mcg/ml
  inhibition at indicated concentration: +
[12]; 10 mcg/ml
  inhibition at indicated concentration: +
[12]; 100 mcg/ml
  inhibition at indicated concentration: +
[12]; 1000 mcg/ml
  inhibition at indicated concentration: +
Geotrichum sp. UC 1207; 1 mcg/ml
  inhibition at indicated concentration: +
Geotrichum sp. UC 1207; 10 mcg/ml
  inhibition at indicated concentration: +
Geotrichum sp. UC 1207; 100 mcg/ml
  inhibition at indicated concentration: +
Geotrichum sp. UC 1207; 1000 mcg/ml
  inhibition at indicated concentration: +
[13]; 1 mcg/ml
  inhibition at indicated concentration: +
[13]; 10 mcg/ml
  inhibition at indicated concentration: +
[13]; 100 mcg/ml
  inhibition at indicated concentration: +
[13]; 1000 mcg/ml
  inhibition at indicated concentration: +
[14]; 1 mcg/ml
  inhibition at indicated concentration: +
[14]; 10 mcg/ml
  inhibition at indicated concentration: +
[14]; 100 mcg/ml
  inhibition at indicated concentration: +
[14]; 1000 mcg/ml
  inhibition at indicated concentration: -
[15]; 1 mcg/ml
  inhibition at indicated concentration: +
[15]; 10 mcg/ml
  inhibition at indicated concentration: +
[15]; 100 mcg/ml
  inhibition at indicated concentration: +
[15]; 1000 mcg/ml
  inhibition at indicated concentration: +
[16]; 1 mcg/ml
  inhibition at indicated concentration: +
[16]; 10 mcg/ml
  inhibition at indicated concentration: +
[16]; 100 mcg/ml
  inhibition at indicated concentration: +
[16]; 1000 mcg/ml
  inhibition at indicated concentration: +
[17]; 1 mcg/ml
  inhibition at indicated concentration: +
[17]; 10 mcg/ml
  inhibition at indicated concentration: +
[17]; 100 mcg/ml
  inhibition at indicated concentration: +
[17]; 1000 mcg/ml
  inhibition at indicated concentration: -
[18]; 1 mcg/ml
  inhibition at indicated concentration: +
[18]; 10 mcg/ml
  inhibition at indicated concentration: +
[18]; 100 mcg/ml
  inhibition at indicated concentration: +
[18]; 1000 mcg/ml
  inhibition at indicated concentration: +
[19]; 1 mcg/ml
  inhibition at indicated concentration: +
[19]; 10 mcg/ml
  inhibition at indicated concentration: +
[19]; 100 mcg/ml
  inhibition at indicated concentration: +
[19]; 1000 mcg/ml
  inhibition at indicated concentration: -
[20]; 1 mcg/ml
  inhibition at indicated concentration: +
[20]; 10 mcg/ml
  inhibition at indicated concentration: +
[20]; 100 mcg/ml
  inhibition at indicated concentration: +
[20]; 1000 mcg/ml
  inhibition at indicated concentration: +
solubilities; chloroform
  solubility: slightly soluble
solubilities; cold methylene chloride
  solubility: slightly soluble
solubilities; ethanol
  solubility: soluble
solubilities; methanol
  solubility: soluble
solubilities; water
  solubility: soluble
[21]
  activity against Gram-positive and Gram-negative bacteria: active
fungi
  activity against fungi: active
P. vulgaris
  activity against P. vulgaris: active
